Positions of bridges follow the written chain, without caps; N, C: chain ends. No end group written: not given here.
System: HMEC-1 human microvascular endothelial cells
Test: Proliferation of HMEC-1 cells (crystal violet)
Assay type: cell-based
Settings: 25 µg/ml
Protocol: We initially determined the cytotoxic effects of xibalbins on primary sensory neurons from adult male rats cultured in vitro [2]. […] We exposed overnight cultures of dissociated rat dorsal root ganglions (DRGs) to xibalbins for 5 and 30 min. Subsequently, all cells were fixed and immunocytochemically stained for the neuronal marker UCHL1 to identify neurons. The entire culture was digitally scanned using high content imaging (HCI) microscopy, and cell numbers, UCHL1 staining per cell, and cell size was analyzed. No loss of neurons was induced by either of the tested xibalbins, even at the highest concentration of 0.8 µg/µL (Additional File 3: Figure S2). […] We further investigated the potential toxicity of xibalbins in monocyte/macrophage-like cells (RAW264.7) and human microvascular endothelial cells (HMEC); see Additional File 5: Figure S4 The viability of RAW264.7 cells was detected using a formazan-based assay, while the proliferation of HMECs was assessed by measuring the number of crystal violet-stained cells.
Supplementary file 12915_2024_1955_MOESM5_ESM.jpg: Additional file 5: Figure S4. Effects of xibalbins on cytotoxicity in RAW264.7 macrophages and adhesion of leukocytes onto the vascular endothelium. […] Cells were incubated with WST-8 and the formed formazan was detected by absorbance measurements. […] The amount of DNA-bound crystal violet was detected by absorbance measurements. […]

KRSCIRRFGRCDHRPNDCCYNSSCRCNLWGSNCRCQRMGLFQKWGK (disulfide 4-19, 11-24, 18-35, 26-33) [xib13]
Prolif. HMEC-1: 91.3
